For data set [1], the system named is MC-38 cells. The experiment in a line: In vitro cytotoxicity, CCK-8 assay. The data set is classed as cell-based, Murine. As to conditions: Mus musculus, 72 h, curcumin concentration. How it is done:
The cytotoxicity of s-Cur, Cur/NCMs, and Cur/DCMs against MC-38 cells was determined by a CCK-8 assay. Briefly, MC-38 cells were cultured in RPMI1640 medium with 10% FBS, penicillin (100 U/mL), and streptomycin (100 µg/mL) for 24 h. Then, the cells were seeded in 96-well plates (Corning, NY) at 10,000 cells/well in 100 µL medium. After incubation for 24 h, the cells were exposed to s-Cur and equivalent amount of Cur/NCMs and Cur/DCMs to yield final curcumin concentrations from 0 to 65 µg/mL. For GSH triggered release experiments, adherent cells were incubated with 10 mM glutathione monoethyl ester (GSH-OEt) for 2 h before exposure to the curcumin formulations.
After incubation for 72 h, 10 μL CCK8 solution with 100 μL growth medium was added into each well and the cells were incubated for another 1 h. Then, the culture medium was added with 10 μL 1% SDS (dissolve 0.1 g SDS with PBS to obtain 10 mL solution) to stop the reaction, and reading on a Synergy HTX multi-mode reader (BioTek, Winooski, VT) at 450 nm. The cytotoxicity assay was performed in triplicate and the cell viability (%) was calculated with the following equation: (3) Cell viability=At−AB/Ac−AB×100% where At is the absorption value of samples, Ac is the absorption value of the control group, and AB is the absorption value of the blank group. […]
A general note: Formazan colour is commonly taken as a measure of viable cells.

Data set [2] is described as follows: Pharmacokinetics after i.v. administration in SD rats. It counts as in vivo. Conditions: Sprague-Dawley, rat, plasma, iv. How it is done: Nine SD rats were randomly divided into three groups (three rats for each group), receiving s-Cur, Cur/NCMs, and Cur/DCMs. Following the intravenous (i.v.) administration of the three curcumin formulations (20 mg/kg), 0.1 mL of the blood samples was collected from the tail vein at predetermined time intervals. The blood samples were centrifuged for 6 min at 5867×g to obtain the plasma. Then, the curcumin concentrations in the plasma were analyzed using a liquid chromatography mass spectrometer (LCMS-2020) equipped with a Shimadzu UV-visible spectrophotometer (Columbia, MD). The detection limitation of the equipment was 1 ng/mL. We employed the non-compartmental analysis in WinNonlin software V6.2.1 to calculate major pharmacokinetic parameters.

Data set [3] concerns p-MEK1/2 and p-Erk1/2. The experiment in a line: Western blot assay of p-MEK1/2 and p-Erk1/2 in MC-38 cells. It counts as cell-based, Murine. As to conditions: 10 h. How it is done: MC38 cells were lysed using whole protein extraction kit (KeyGEN BioTECH, Nanjing, China, KGP250). Protein concentration was determined using bicinchoninic acid (BCA) protein assay (KeyGEN BioTECH, Nanjing, China, KGPBCA). Protein extracts were electrophoresed in 10% SDS-PAGE and transferred to a nitrocellulose filter (NC) membrane, blocked by 5% skim milk at room temperature for 1 h, which was prepared in Tris-buffered saline with tween 20 (TBST). Then, the membranes were immunoblotted by primary antibodies. For detection, HRP-conjugated secondary antibodies (Ray Antibody Biotech, Beijing, China, RM2001L) and chemiluminescent HRP substrate kit (EpiZyme, Shanghai, China, SQ2O2) were used. As the molecular weight of the target bands is similar, the western blot fast stripping buffer (EpiZyme, Shanghai, China, PS107) was used. The following primary antibodies were used: anti-p-MEK1/2 (Cell Signaling Technology (CST), 41G9, Boston, MA), anti-p-Erk1/2 (CST, 197G2). The blots were quantified using ImageJ (National Institutes of Health, Bethesda, MD) and normalized to the control group.
(In general: Immunoblotting shows a protein as a band on a membrane.)

A short description of data set [4]: In vitro release of curcumin by dynamic dialysis method. The data set is classed as physicochemical. As to conditions: 20% SDS release medium, 37 °C. How it is done: In order to evaluate the crosslinking effect, in vitro release profiles of curcumin from DMSO (s-Cur), Cur/NCMs, and Cur/DCMs were studied by dynamic dialysis method with 20% SDS solution as release medium. Lyophilized micelles were reconstituted and diluted to 1 mg/mL of curcumin with PBS (0.1 M, pH 7.4) then placed 1 mL into dialysis tube (MWCO 8000–14,000 Da). The tubes were dialyzed against 50 mL release medium at 37 ± 0.5 °C at a stirring speed of 100 rpm with or without 10 mM GSH. At predetermined time intervals, 1 mL of release medium was withdrawn and replenished with an equal volume of the fresh medium. The amount of curcumin released was determined by HPLC analysis as mentioned above. Cumulative release of curcumin was then calculated. The in vitro release studies were carried out in triplicate.

Data set [5] deals with MC-38 colon tumor. Further details: method as in our previous research (data not shown). As to conditions: in vivo; ref our previous research (data not shown); cited from earlier work.

A value given as a limit tells only on which side of the number the result lay.

As for `COc1cc(C=CC(=O)CC(=O)C=Cc2ccc(O)c(OC)c2)ccc1O` [s-Cur, 1,7-bis(4-hydroxy-3-methoxyphenyl)-1,6-heptadiene-3,5-dione], in data set [1], the concentration for half-maximal inhibition (IC50) was determined as 13.7 µg/mL. For the same compound, in data set [2] (i.v. 20 mg/kg, after 12 h (detection limit), read-out: plasma curcumin level), the concentration at 12 h was less than 1 ng/mL. In data set [2] (i.v. 20 mg/kg, within 30 min, read-out: plasma curcumin level), the concentration at 30 min was less than 100 ng/mL. Also, in data set [2] (single dosage 20 mg/kg), the area under the curve AUC(0-inf) is 1970 ng·h/mL, the AUC(0-t) stood at 1960 ng·h/mL, the Cmax is 7120 ng/mL and the half-life is 83.4 min. For the same compound, in data set [2] (single dosage 20 mg/kg, read-out: CLz (converted)), the clearance was 170 mL/min/kg. For the same compound, in data set [2] (single dosage 20 mg/kg, read-out: MRT(0–t)), the MRT last was 9 min. The MRT inf in data set [2] (single dosage 20 mg/kg, read-out: MRT(0–∞)) worked out at 9.6 min. Also, in data set [2] (single dosage 20 mg/kg, read-out: Vz), the Vd came out at 20.4 L/kg. The “expression of the proliferative marker proteins p-MEK1/2 and p-ERK1/2” value in data set [3] is “significantly low expression”. The curcumin released in data set [4] (at 24 h) came out at 75%. In addition, the curcumin released result in data set [4] (within the first 8 h) is recorded as “About 60%”. Further, in data set [5], the “enhancement of the antitumor effects of anti-PD-1” value is recorded as “not to be able to significantly enhance the antitumor effects of anti-PD-1”.

What is called IC50 is the concentration needed to halve the response being measured. Usually AUC(0-inf) stands for the area under the concentration-time curve extrapolated to infinity. A lower AUC(0-inf) goes with low exposure. The term AUC(0-t) denotes the area under the concentration-time curve up to a stated or last time point. A higher AUC(0-t) goes with more exposure. For orientation: Cmax means the highest concentration seen after dosing. The term half-life denotes the time needed for the level to fall by half in the phase considered. Lower therefore signals rapid decline.

Values taken from publication PMC8118404, “Synergistic effect of the anti-PD-1 antibody with blood stable and reduction sensitive curcumin micelles on colon cancer” (Drug Delivery, 2021).
